Experimental data reported in patent publication US9133496B2, “Material for screening for compound acting on ion channel and use thereof” (priority 2010, dated 2015).

Legend:
[1] = test system: HEK-Kir cells; experiment: Membrane potential of HEK-Kir cells, current clamp method; assay type: cell-based, human; conditions: 100 μM Ba ions, resting potential about −70 mV before, FIG. 2B
[2] = target: T1, Kir 2.1 channel (Homo sapiens, UniProt P63252); experiment: Kir channel current in HEK-Kir cells, voltage clamp method; assay type: cell-based; conditions: 100 μM Ba ions, FIG. 2A
T1 construct: expressed in transfected cells
T1 sequence (P63252 1-427): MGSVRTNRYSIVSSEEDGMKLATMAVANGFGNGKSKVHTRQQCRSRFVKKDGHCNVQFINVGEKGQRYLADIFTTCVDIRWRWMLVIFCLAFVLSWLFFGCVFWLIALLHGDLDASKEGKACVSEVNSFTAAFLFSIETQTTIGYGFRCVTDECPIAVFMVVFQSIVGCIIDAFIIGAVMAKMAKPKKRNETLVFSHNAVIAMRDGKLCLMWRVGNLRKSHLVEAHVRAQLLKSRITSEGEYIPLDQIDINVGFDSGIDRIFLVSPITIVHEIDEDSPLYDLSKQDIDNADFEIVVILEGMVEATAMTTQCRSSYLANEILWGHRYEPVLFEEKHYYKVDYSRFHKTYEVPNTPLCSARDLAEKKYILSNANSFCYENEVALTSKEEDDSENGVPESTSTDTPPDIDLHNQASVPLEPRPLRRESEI
Method: (§1) Human-derived embryonic kidney cells (HEK293 cells) were purchased from the Health Sciences Research Resource Bank (HSRRB). 10% FBS (Gibco Corp.) was added thereto followed by culturing at 37° C. in 5% CO2 in D-MEM medium (Wako Pure Chemical Industries, Ltd.) containing 100 U/ml penicillin (Wako Pure Chemical Industries, Ltd.) and 100 μg/ml streptomycin (Meiji Seika Kaisha, Ltd.). pcDNA/Kir 2.1, obtained by subcloning human-derived Kir 2.1 (NM_00891.2) in pcDNA3.1(+) (Invitrogen Corp.), was inserted using Lipofectamine 2000 reagent (Invitrogen Corp.) followed by culturing in medium obtained by adding 0.2 mg/ml Zeocin (Invitrogen Corp.) to the above-mentioned D-MEM medium and then cloning Zeocin resistant cells to produce Kir 2.1 constantly expressing cells (HEK-Kir). In addition, the inactivated mutant Nav-QQQ (HEK-Kir-mutated Nay) was inserted into the Kir 2.1 constantly expressing cells using the same method followed by conducting experiments 24 to 72 hours later.
Kir channel current was measured by applying the voltage clamp method to HEK-Kir cells.

[3] = test system: HEK-Kir-mutated Nav cells; experiment: DiBAC4(3) membrane potential fluorescence under high K+ stimulation in HEK-Kir-mutated Nav cells; assay type: cell-based, human; conditions: 1 mM lidocaine, extracellular K ion 5.9 mM to 15.3 mM, FIG. 17
Method: In the present example, a study was conducted on measurement of membrane potential using a membrane potential-sensitive dye in the form of DiBAC4(3), and using an extracellular solution containing K ions at a high concentration for depolarizing stimulation.
After loading two types of cells (HEK and HEK-Kir-mutated Nav cells) with 100 nM DiBAC4(3) (bis(1,3-dibutylbarbituric acid)trimethine oxanol) in normal HEPES buffer containing the dye for 30 minutes at room temperature, and fluorescence was measured at 520 nm or higher by exciting at 488 nm and reflecting with a dichroic mirror at 505 nm. In addition, high K^+ extracellular fluid having an increased K ion concentration was used as a stimulus to depolarize the cell membrane. This is because K ions are primarily involved in formation of resting membrane potential. […] In the present example, changes in fluorescence intensity of two types of cells were measured using this depolarizing stimulus. Furthermore, measurements were carried out based on a value of 1 for fluorescence intensity in the case of making the extracellular K ion concentration to be 140 mM K^+. The Argus/HiSCA high-speed, cooled CCD camera fluorescent imaging system (Hamamatsu Photonics K.K.) was used to measure fluorescence.

[4] = test system: HEK-Kir-mutated Nav cells; experiment: Cell death by electrical stimulation, MTT method, HEK-Kir-mutated Nav cells; assay type: cell-based, human; conditions: square wave 80 mA, 200 ms, three times at 3 min intervals, FIG. 6
Method: as §1, with “In addition, the inactivated mutant Nav-QQQ (HEK-Kir-mutated Nay) was inserted into the Kir 2.1 constantly expressing cells using the same method followed by conducting experiments 24 to 72 hours later.” left out
It was clearly determined from the results described in section 2 above that an extremely long action potential is generated in the mutant type Nav 1.5 channel. Since there is thought to be the possibility of cell death occurring when the action potential is generated by electrical stimulation, cell death attributable to electrical stimulation was measured. […] On the basis thereof, cell death was determined to occur in HEK-Kir-mutated Nav cells as a result of generating an extremely long action potential, while inhibition of Na ion channels blocked cell death.

| SMILES | resting membrane potential [1] | inward Kir channel current [2] | changes in fluorescence caused by high K+ stimulation [3] | occurrence of cell death attributable to electrical stimulation [4] |
| --- | --- | --- | --- | --- |
| [Ba+2] [Ba ions] | became shallow | inhibited |  |  |
| CCN(CC)CC(=O)Nc1c(C)cccc1C [lidocaine] |  |  | inhibited | inhibited |
